The text below walks through data of patent EP4725941A1, “ARYLAMIDE DERIVATIVE HAVING ANTITUMOR ACTIVITY” (priority 2020, dated 2021).

In general, IC50 refers to the concentration at which inhibition is half-maximal. Broadly, the microsomal CLint is a measure of how fast metabolising enzymes remove a compound, apart from limits set by blood flow. A high value points to faster metabolism.

Where two headings read alike, the source gives them in different places.

One data set addresses T1, BRAF (Homo sapiens, UniProt P15056).
T1 construct: purchased Eurofins Genomics KK; (BRAF); Thermo Fisher Scientific Inc. (MEK1)
Kind of data set: BRAF-inhibiting activity, time-resolved fluorescence-fluorescence resonance energy transfer assay. It counts as biochemical. The method, then: The BRAF-inhibiting activity of the compounds listed in Table 3 below was evaluated by the time-resolved fluorescence-fluorescence resonance energy transfer assay as described below.

In a further data set the target is T2, MEK1 (Homo sapiens, UniProt Q02750).
T2 construct: purchased Thermo Fisher Scientific Inc. (MEK1, CRAF); Carna Biosciences, Inc. (ERK2)
Briefly: MEK1-inhibiting activity, fluorescent polarization method (CRAF/MEK1/ERK2 cascade, IMAP). The class given is biochemical. The following applies: Table 3; read-out: MEK1 IC50. The method, then: The MEK1-inhibiting activity of the compounds listed in Table 3 below were evaluated by the fluorescent polarization method as described below.

Data set [1] in a line: Human liver microsome stability. The class given is in vitro ADME. The following applies: human liver microsomes, pH 7.4. On the technique in general: Liver microsomes are vesicles of endoplasmic reticulum, rich in cytochrome P450 enzymes.
The next data set has as its system NCI-H2122. Briefly: Cell proliferation-inhibiting activity (ATP in viable cells, CellTiter-Glo), NCI-H2122. The class given is cell-based, human. The following applies: human lung cancer cells, 4 days, read-out: NCI-H2122 IC50.
A further data set deals with A549. Briefly: Cell proliferation-inhibiting activity (ATP in viable cells, CellTiter-Glo), A549. The class given is cell-based, human. The following applies: human lung cancer cells, 4 days; read-out: A549 IC50. On the technique in general: ATP-based viability assays read luminescence as a measure of living cells.

T2 sequence (Q02750 whole entry): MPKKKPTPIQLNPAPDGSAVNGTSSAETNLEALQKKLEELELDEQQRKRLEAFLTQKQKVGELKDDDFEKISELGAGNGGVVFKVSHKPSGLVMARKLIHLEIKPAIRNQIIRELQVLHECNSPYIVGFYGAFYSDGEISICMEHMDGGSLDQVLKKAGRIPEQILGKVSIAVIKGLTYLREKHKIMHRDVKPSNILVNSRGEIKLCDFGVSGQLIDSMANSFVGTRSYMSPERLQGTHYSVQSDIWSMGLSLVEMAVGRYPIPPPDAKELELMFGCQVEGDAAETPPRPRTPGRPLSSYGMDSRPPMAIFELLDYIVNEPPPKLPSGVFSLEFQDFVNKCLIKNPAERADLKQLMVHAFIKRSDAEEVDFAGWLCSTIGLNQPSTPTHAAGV
T1 sequence (P15056 417-766 limits assumed): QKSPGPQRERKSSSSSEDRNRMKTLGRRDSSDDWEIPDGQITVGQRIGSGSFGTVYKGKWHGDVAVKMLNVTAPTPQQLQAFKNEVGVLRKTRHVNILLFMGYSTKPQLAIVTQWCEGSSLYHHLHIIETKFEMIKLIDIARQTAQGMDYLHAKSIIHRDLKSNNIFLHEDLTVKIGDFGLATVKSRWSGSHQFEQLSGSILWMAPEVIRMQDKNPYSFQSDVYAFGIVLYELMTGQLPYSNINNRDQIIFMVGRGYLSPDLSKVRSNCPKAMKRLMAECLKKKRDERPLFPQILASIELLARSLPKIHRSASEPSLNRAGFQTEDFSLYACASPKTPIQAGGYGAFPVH

Turning to `CNS(=O)(=O)Nc1nccc(Cc2cc(C(=O)NC3CC3)c(Nc3ccc(I)cc3F)c(F)c2F)c1F` [Compound A-2, N-cyclopropyl-3,4-difluoro-2-(2-fluoro-4-iodoanilino)-5-[[3-fluoro-2-(methylsulfamoylamino)pyridin-4-yl]methyl]benzamide], the results for the IC50 at BRAF (read-out: BRAF IC50; Table 3) and on MEK1 were 3 nM and 5 nM, respectively. In data set [1], this compound gave a microsomal CLint at 0.99 µM of 25 µL/min/mg.

For `COCC1(NS(=O)(=O)Nc2nccc(Cc3cc(C(N)=O)c(Nc4ccc(I)cc4F)c(F)c3F)c2F)CC1` [Compound A-16], the IC50 at BRAF (Table 3; read-out: BRAF IC50) was 3 nM; at MEK1, 8 nM; in the data set with NCI-H2122, 3 nM; in the data set with A549, 14 nM.

As for `CCNS(=O)(=O)Nc1nccc(Cc2cc(C(=O)NOCCO)c(Nc3ccc(I)cc3F)c(F)c2F)c1F` [Compound A-44, 5-[[2-(Ethylsulfamoylamino)-3-fluoropyridin-4-yl]methyl]-3,4-difluoro-2-(2-fluoro-4-iodoanilino)-N-(2-hydroxyethoxy)benzamide], the half-inhibitory concentration (IC50) on BRAF (Table 3; read-out: BRAF IC50) was determined as 19 nM; at MEK1 it was 2 nM; in the data set with NCI-H2122 (NCI-H2122, 96 h), 1 nM.

With `CC1(NS(=O)(=O)Nc2nccc(Cc3cc(C(=O)NC4CC4)c(Nc4ccc(I)cc4F)c(F)c3F)c2F)CCC1` [Compound A-47, N-Cyclopropyl-3,4-difluoro-2-(2-fluoro-4-iodoanilino)-5-[[3-fluoro-2-[(1-methylcyclobutyl)sulfamoylamino]pyridin-4-yl]methyl]benzamide], the concentration for half-maximal inhibition (IC50) on BRAF (read-out: BRAF IC50; Table 3) was 21 nM; on MEK1, 39 nM; in the data set with NCI-H2122 (NCI-H2122, 96 h), 17 nM. Besides, the microsomal CLint at 0.99 µM in data set [1] was found to be 38 µL/min/mg.

`CC1(NS(=O)(=O)Nc2cccc(Cc3cc(C(=O)NC4CC4)c(Nc4ccc(I)cc4F)c(F)c3F)c2F)CCC1` [Compound D-10, N-Cyclopropyl-3,4-difluoro-2-(2-fluoro-4-iodoanilino)-5-[[2-fluoro-3-[(1-methylcyclobutyl)sulfamoylamino]phenyl]methyl]benzamide]: the half-inhibitory concentration (IC50) at BRAF (read-out: BRAF IC50; Table 3) came out at 34 nM; on MEK1, 261 nM; in the data set on NCI-H2122 (NCI-H2122, 96 h), 28 nM. This compound returned a microsomal CLint at 0.99 µM in data set [1] of 107 µL/min/mg.

For `CNS(=O)(=O)Nc1cccc(Cc2cc(C(=O)NC3CC3)c(Nc3ccc(C4CC4)cc3F)c(F)c2F)c1F` [Compound D-15, N-Cyclopropyl-2-(4-cyclopropyl-2-fluoroanilino)-3,4-difluoro-5-[[2-fluoro-3-(methylsulfamoylamino)phenyl]methyl]benzamide], the IC50 on BRAF (read-out: BRAF IC50; Table 3) came to 17 nM; at MEK1, 1240 nM. Further, the microsomal CLint at 0.99 µM in data set [1] is 91 µL/min/mg.

On to `CNS(=O)(=O)Nc1nccc(Cc2cc(C(=O)NC3CC3)c(Nc3ccc(C4CC4)cc3F)c(F)c2F)c1F` [Compound G-1, N-Cyclopropyl-2-(4-cyclopropyl-2-fluoroanilino)-3,4-difluoro-5-[[3-fluoro-2-(methylsulfamoylamino)pyridin-4-yl]methyl]benzamide], for which the half-inhibitory concentration (IC50) on BRAF (read-out: BRAF IC50; Table 3) was found to be 12 nM; on MEK1, 222 nM. Besides, the microsomal CLint at 0.99 µM in data set [1] was determined as 32 µL/min/mg.

For the compound `CCS(=O)(=O)Nc1nccc(Cc2cc(C(=O)NC3CC3)c(Nc3ccc(C4CC4)cc3F)c(F)c2F)c1F` [Compound G-7, N-Cyclopropyl-2-(4-cyclopropyl-2-fluoroanilino)-5-[[2-(ethylsulfonylamino)-3-fluoropyridin-4-yl]methyl]-3,4-difluorobenzamide], the IC50 was determined as 46 nM at BRAF (read-out: BRAF IC50; Table 3); 2470 nM at MEK1; 75 nM with NCI-H2122 (NCI-H2122, 96 h). This compound also had an intrinsic clearance (microsomal CLint) at 0.99 µM in data set [1] of 21 µL/min/mg.

Regarding `NC(=O)c1cc(Cc2ccnc(NS(=O)(=O)NC3CC3)c2F)c(F)cc1Nc1ccc(I)cc1F` [Compound I-3, 5-[[2-(Cyclopropylsulfamoylamino)-3-fluoropyridin-4-yl]methyl]-4-flu oro-2-(2-fluoro-4-iodoanilino)benzamide], the results for the 50% inhibitory concentration (IC50) on BRAF (read-out: BRAF IC50; Table 3) and at MEK1 were 2 nM and 55 nM, respectively. The microsomal CLint at 0.99 µM in data set [1] was determined as 16 µL/min/mg.

In the case of `COCCNS(=O)(=O)Nc1nccc(Cc2cc(C(N)=O)c(Nc3ccc(I)cc3F)cc2F)c1F` [Compound I-4, 4-Fluoro-2-(2-fluoro-4-iodoanilino)-5-[[3-fluoro-2-(2-methoxyethylsulfamoylamino)pyridin-4-yl]methyl]benzamide], the IC50 on BRAF (read-out: BRAF IC50; Table 3) turned out to be 4 nM; on MEK1, 275 nM; in the data set with NCI-H2122 (NCI-H2122, 96 h), 83 nM. In data set [1], this compound gave an intrinsic clearance (microsomal CLint) at 0.99 µM of 25 µL/min/mg.

Regarding `COCCNS(=O)(=O)Nc1nccc(Cc2cc(C(N)=O)c(Nc3ccc(I)cc3F)n(C)c2=O)c1F` [Compound J-2, 2-(2-Fluoro-4-iodoanilino)-5-[[3-fluoro-2-(2-methoxyethylsulfamoylamino)pyridin-4-yl]methyl]-1-methyl-6-oxopyridine-3-carboxamide], the IC50 at BRAF (read-out: BRAF IC50; Table 3) is 11 nM; at MEK1, 495 nM; in the data set with NCI-H2122 (NCI-H2122, 96 h), 130 nM. This compound also came in with a microsomal CLint at 0.99 µM in data set [1] of 16 µL/min/mg.

In the case of `CNS(=O)(=O)Nc1nccc(Cc2cc(C(N)=O)c(Nc3ccc(C4CC4)cc3F)n(C)c2=O)c1F` [Compound J-3, 2-(4-Cyclopropyl-2-fluoroanilino)-5-[[3-fluoro-2-(methylsulfamoylamino)pyridin-4-yl]methyl]-1-methyl-6-oxopyridine-3-carboxamide], the 50% inhibitory concentration (IC50) at BRAF (read-out: BRAF IC50; Table 3) was determined as 11 nM; on MEK1, 308 nM. In data set [1], this compound displayed an intrinsic clearance (microsomal CLint) at 0.99 µM of 23 µL/min/mg.

Regarding `COCCNS(=O)(=O)Nc1nccc(Cc2cc(C(=O)NOC)c(Nc3ccc(I)cc3F)n(C)c2=O)c1F` [Compound J-9, 2-(2-Fluoro-4-iodoanilino)-5-[[3-fluoro-2-(2-methoxyethylsulfamoylamino)pyridin-4-yl]methyl]-N-methoxy-1-methyl-6-oxopyridine-3-carbox amide], the IC50 turned out to be 3 nM at BRAF (read-out: BRAF IC50; Table 3); 64 nM on MEK1; 17 nM in the data set with NCI-H2122 (NCI-H2122, 96 h). Besides, in data set [1], the microsomal CLint at 0.99 µM came out at 23 µL/min/mg.

Turning to `CCS(=O)(=O)Nc1cc(Cc2cc(C(N)=O)c(Nc3ccc(I)cc3F)n(C)c2=O)ccn1` [Compound J-12, 5-[[2-(Ethylsulfonylamino)pyridin-4-yl]methyl]-2-(2-fluoro-4-iodoanilino)-1-methyl-6-oxopyridine-3-carboxamide], the IC50 is 2290 nM at MEK1 and 180 nM with NCI-H2122 (NCI-H2122, 96 h). In data set [1], this compound had a microsomal CLint at 0.99 µM of 19 µL/min/mg.

Take `Cn1c(Nc2ccc(I)cc2F)c(C(N)=O)cc(Cc2ccnc(NS(=O)(=O)NC3CC3)c2F)c1=O` [Compound J-13, 5-[[2-(Cyclopropylsulfamoylamino)-3-fluoropyridin-4-yl]methyl]-2-(2-fluoro-4-iodoanilino)-1-methyl-6-oxopyridine-3-carboxamide]: the IC50 on BRAF (read-out: BRAF IC50; Table 3) came out at 4 nM; at MEK1, 29 nM; in the data set with NCI-H2122 (NCI-H2122, 96 h), 80 nM. This compound yielded an intrinsic metabolic clearance (microsomal CLint) at 0.99 µM in data set [1] of 39 µL/min/mg.

As to `CCNS(=O)(=O)Nc1nccc(Cc2cc(C(N)=O)c(Nc3ccc(I)cc3F)n(C)c2=O)c1F` [Compound J-14, 5-[[2-(ethylsulfamoylamino)-3-fluoropyridin-4-yl]methyl]-2-(2-fluoro-4-iodoanilino)-1-methyl-6-oxopyridine-3-carboxamide], the IC50 on BRAF (read-out: BRAF IC50; Table 3) stood at 3 nM; at MEK1, 22 nM; in the data set with NCI-H2122 (NCI-H2122, 96 h) it was 37 nM. Further, in data set [1], the intrinsic metabolic clearance (microsomal CLint) at 0.99 µM amounted to 34 µL/min/mg.

In the case of `Cn1c(Nc2ccc(I)cc2F)c(C(N)=O)cc(Cc2ccnc(NS(=O)(=O)NC3(C)CCC3)c2F)c1=O` [Compound J-15, 2-(2-Fluoro-4-iodoanilino)-5-[[3-fluoro-2-[(1-methylcyclobutyl)sulfamoylamino]pyridin-4-yl]methyl]-1-methyl-6-oxopyridine-3-carboxamide], the IC50 at BRAF (read-out: BRAF IC50; Table 3) was 12 nM; at MEK1 it was 56 nM; in the data set on NCI-H2122 (NCI-H2122, 96 h), 46 nM. Moreover, the microsomal CLint at 0.99 µM in data set [1] was 225 µL/min/mg.

For the compound `CCCNS(=O)(=O)Nc1nccc(Cn2cc(C(N)=O)c(Nc3ccc(I)cc3F)c(F)c2=O)c1F` [Compound N-2, 5-Fluoro-4-(2-fluoro-4-iodoanilino)-1-[[3-fluoro-2-(propylsulfamoylamino)pyridin-4-yl]methyl]-6-oxopyridine-3-carboxamide], the IC50 at BRAF (read-out: BRAF IC50; Table 3) amounted to 1 nM; at MEK1, 1 nM; in the data set on NCI-H2122 (NCI-H2122, 96 h), 60 nM. In data set [1], this compound gave a microsomal CLint at 0.99 µM of 11 µL/min/mg.

For the compound `CCS(=O)(=O)Nc1nccc(Cn2cc(C(N)=O)c(Nc3ccc(I)cc3F)c(C)c2=O)c1F` [Compound P-2, 1-[[2-(Ethylsulfonylamino)-3-fluoropyridin-4-yl]methyl]-4-(2-fluoro-4-iodoanilino)-5-methyl-6-oxopyridine-3-carboxamide], the half-maximal inhibitory concentration (IC50) on MEK1 stood at 8 nM. The same compound came in with an intrinsic clearance (microsomal CLint) at 0.99 µM in data set [1] of 3 µL/min/mg.

Take `Cc1c(Nc2ccc(I)cc2F)c(C(N)=O)cn(Cc2ccnc(NS(=O)(=O)NC3(C)CCC3)c2F)c1=O` [Compound P-3, 4-(2-Fluoro-4-iodoanilino)-1-[[3-fluoro-2-[(1-methylcyclobutyl)sulfamoylamino]pyridin-4-yl]methyl]-5-methyl-6-oxopyridine-3-carboxamide]: the IC50 came to 10 nM on BRAF (read-out: BRAF IC50; Table 3); 3 nM at MEK1; 96 nM with NCI-H2122 (NCI-H2122, 96 h). Besides, the microsomal CLint at 0.99 µM in data set [1] was determined as 37 µL/min/mg.

On to `CCS(=O)(=O)Nc1nccc(Cn2cc(C(=O)NOC)c(Nc3ccc(I)cc3F)c(C)c2=O)c1F` [Compound P-5], for which the IC50 on BRAF (read-out: BRAF IC50; Table 3) amounted to 11 nM; at MEK1, 11 nM; in the data set with NCI-H2122 (NCI-H2122, 96 h), 31 nM. In data set [1], this compound had an intrinsic metabolic clearance (microsomal CLint) at 0.99 µM of 2 µL/min/mg.

In the case of `O=C(NOC[C@H](O)CO)c1ccc(F)c(F)c1Nc1ccc(I)cc1F` [Ref-1, N-[(2R)-2,3-Dihydroxypropoxy]-3,4-difluoro-2-(2-fluoro-4-iodoanilino)benzamide, reference compound], the intrinsic metabolic clearance (microsomal CLint) at 0.99 µM in data set [1] was determined as 20 µL/min/mg.
